The text below walks through data of PubChem BioAssay AID1033 (Sanford-Burnham Center for Chemical Genomics, 2008).

Calls of active or inactive are those of the source. No rule for the calls is given here.

A word on the Kd: it is the free concentration of one partner at which half of the binding sites on the other are occupied at equilibrium, for simple one-to-one binding.

Chaperone protein DnaK (Escherichia coli (strain K12)), sequence (P0A6Y8 whole entry, looked up, the tested form may be a part): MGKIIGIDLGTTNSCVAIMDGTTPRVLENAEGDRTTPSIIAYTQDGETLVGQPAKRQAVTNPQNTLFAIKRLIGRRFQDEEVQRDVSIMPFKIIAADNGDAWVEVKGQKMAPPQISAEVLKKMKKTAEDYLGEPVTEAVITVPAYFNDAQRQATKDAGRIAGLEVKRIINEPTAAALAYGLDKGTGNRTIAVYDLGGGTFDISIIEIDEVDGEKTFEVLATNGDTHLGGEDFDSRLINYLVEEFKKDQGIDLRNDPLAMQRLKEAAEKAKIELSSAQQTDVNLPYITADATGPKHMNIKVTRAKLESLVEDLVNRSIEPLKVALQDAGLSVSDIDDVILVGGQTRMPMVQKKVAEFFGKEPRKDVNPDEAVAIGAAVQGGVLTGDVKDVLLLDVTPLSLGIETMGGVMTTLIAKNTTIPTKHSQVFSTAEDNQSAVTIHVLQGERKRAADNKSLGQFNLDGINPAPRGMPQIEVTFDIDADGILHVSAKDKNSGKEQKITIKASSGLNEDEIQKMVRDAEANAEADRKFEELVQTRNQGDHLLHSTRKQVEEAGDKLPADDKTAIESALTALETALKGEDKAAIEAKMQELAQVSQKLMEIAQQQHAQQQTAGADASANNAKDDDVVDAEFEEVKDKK

This assay has as its target Chaperone protein DnaK (Escherichia coli (strain K12)) (UniProt P0A6Y8). Put plainly: binders of DnaK substrate-binding domain, biophysical, NMR, chaperone (AID 1033). The settings on record: Purified DnaK SBD, NMR ligand binding.
Take `Cc1ccccc1NC(=O)CC1SC(N)=NC1=O` (stereo not drawn): the Kd was > 4 mM (inactive). For `Nc1ccc(S(=O)(=O)Nc2nccs2)cc1`, the Kd was > 4 mM (inactive). Take `NC(=O)c1ccsc1NC(=O)c1cccnc1`: the Kd is > 4 mM (inactive). In the case of `O=C1CS/C(=N/N=C2CCCC2)N1`, the Kd was > 4 mM (inactive). Consider `O=C(Nc1cccc(Cl)c1)c1cnn2cccnc12`, for which the Kd is > 4 mM (inactive). For the molecule `OCc1nc2ccccc2s1`, the Kd is > 4 mM (inactive). For the molecule `O=C(Nc1cccnc1)c1c(F)cccc1F`, the Kd was > 4 mM (inactive).

Regarding `COc1ccc(C(=O)/C=C/c2ccccc2)cc1`, the Kd is > 4 mM (inactive). Turning to `Nc1nnc(COc2cccc(C(F)(F)F)c2)s1`, the Kd was > 4 mM (inactive).

With `C=CCc1ccc(O)c(OC)c1`, the Kd is > 4 mM (inactive). Regarding `CN1CCN(c2nc3c(c(=O)[nH]2)CCCC3)CC1`, the Kd was > 4 mM (inactive). Consider `CC(=O)Nc1cc(N2C(=O)C=CC2=O)ccc1Cl`, for which the Kd is > 4 mM (inactive). In the case of `CCSc1nc2ccccc2n1CC(N)=O`, the Kd was > 4 mM (inactive). For the molecule `COC(=O)NNc1ncnc(N)c1[N+](=O)[O-]`, the Kd was > 4 mM (inactive). Under `CC[C@H]1CN2CCc3cc(OC)c(OC)cc3C2C[C@@H]1CC1NCCc2cc(OC)c(OC)cc21` (stereo partly drawn) stands > 4 mM (inactive); under `O=C1NC2NC(=O)N(c3ccccc3)C2N1` (stereo not drawn), > 4 mM (inactive); under `CC(C)(O)CC[C@@H](O)[C@](C)(O)C1CC[C@@]2(O)C3=CC(=O)C4C[C@@H](O)[C@@H](O)C[C@]4(C)C3CC[C@]12C` (stereo partly drawn), > 4 mM (inactive).

`OCC(O)C(O)C(O)CO` (stereo not drawn): the Kd was > 4 mM (inactive). Under `O=C(NCc1n[nH]c(=O)c2ccccc12)C1CC1` stands > 4 mM (inactive). The figure for `O=C(NCO)c1ccc([N+](=O)[O-])cc1` is > 4 mM (inactive); for `CC(C)c1c(O)ccc2c1CCC1[C@@](C)(CO)CCC[C@]21C` (stereo partly drawn) it is > 4 mM (inactive). Regarding `Oc1cc(O)cc(/C=C/c2ccccc2)c1`, the Kd was > 4 mM (inactive). Take `CC1=CC2C(C(C)C)CCC(C)(O)C2CC1` (stereo not drawn): the Kd was > 4 mM (inactive). Take `O=C(O[C@@H]1Cc2c(O)cc(O)cc2O[C@@H]1c1cc(=O)c(O)c2c(O)c(O)cc([C@H]3Oc4cc(O)cc(O)c4C[C@H]3O)c2c1)c1cc(O)c(O)c(O)c1`: the Kd is > 4 mM (inactive).

As for `N/C(=N/O)C1COc2ccccc2O1` (stereo not drawn), the Kd was > 4 mM (inactive). Under `O=[N+]([O-])c1cccc(-c2nnco2)c1` stands > 4 mM (inactive); under `C/C=C(\C)C(=O)O[C@H]1C[C@@H](OC(C)=O)[C@@]2(C(=O)OC)CO[C@@H]3C2[C@]12CO[C@](O)(C(=O)OC)[C@H]2[C@](C)(C12O[C@@]1(C)[C@H]1C[C@@H]2OC2OC=C[C@@]21O)[C@@H]3O` (stereo partly drawn), > 4 mM (inactive); under `O=C(O)c1cc(=O)c2cccc(O)c2[nH]1`, > 4 mM (inactive). In the case of `Cc1cc(=O)c2c(O)cc(O)c(C)c2o1`, the Kd was > 4 mM (inactive). On to `COC(=O)c1cccc2cc[nH]c12`, for which the Kd is > 4 mM (inactive). As for `CC1(C)Cn2c(nnc2-c2ccccc2)S1`, the Kd is > 4 mM (inactive).

As to `Cn1c(SCC(N)=O)nc2c1c(=O)[nH]c(=O)n2C`, the Kd is > 4 mM (inactive).

Take `Cc1nc2ccccc2c(=O)n1CCCn1ccnc1`: the Kd was > 4 mM (inactive). Regarding `CCOc1ccc(C(=O)c2ccc(OC)c(O)c2O)cc1`, the Kd is > 4 mM (inactive). Turning to `COc1cc(O)cc(/C=C/c2ccccc2)c1`, the Kd was > 4 mM (inactive). Turning to `COc1ccc(-c2coc3cc(O)ccc3c2=O)c(O)c1O`, the Kd was > 4 mM (inactive).

`Cc1cc(=O)cc(C)n1-c1ccccc1N`: the Kd was > 4 mM (inactive).

On to `COc1ccc2c(c1)=C(c1sc(N)nc1O)C(=O)N=2`, for which the Kd is > 4 mM (inactive).
